# Reference: patent US10173971B2, “Picolinamides with fungicidal activity” (DOW AGROSCIENCES LLC, priority 2014, dated 2019)
# Like-named read-outs stand apart in the source and are kept apart here.
# What was measured:
# [1] = system: Zymoseptoria tritici; experiment: Fungicidal activity: leaf blotch of wheat (SEPTTR), wheat seedlings, booth sprayer to run-off or track spray; format: in vivo; conditions: Low-Volume Cereal Activity at 121.5 g/H
# [2] = system: Puccinia triticina; experiment: Fungicidal activity: wheat brown rust (PUCCRT), wheat seedlings, booth sprayer to run-off or track spray; format: in vivo; conditions: Low-Volume Cereal Activity at 121.5 g/H
# [3] = 24 h, 1 Day Protectant, read-out: SEPTTR 1DP
# [4] = 72 h, 3 Day Curative, read-out: SEPTTR 3DC
# [5] = 24 h, 1 Day Protectant, read-out: PUCCRT 1DP
# [6] = 72 h, 3 Day Curative, read-out: PUCCRT 3DC
Compound,"pest or weed control at 121.5 g/ha [1, 3] [%]","pest or weed control at 121.5 g/ha [1, 4] [%]","pest or weed control at 121.5 g/ha [2, 5] [%]","pest or weed control at 121.5 g/ha [2, 6] [%]"
CCCC[C@H](c1ccccc1)[C@H](C)OC(=O)[C@H](C)NC(=O)c1nccc(OC)c1OCOC(=O)C(C)C [compound 200],80 to 100,80 to 100,80 to 100,80 to 100
COc1ccnc(C(=O)N[C@@H](C)C(=O)O[C@@H](C)[C@H](Cc2ccc(Cl)cc2)c2ccccc2)c1OC(C)=O [compound 201],80 to 100,0 to 80,0 to 80,0 to 80
COc1ccnc(C(=O)N[C@@H](C)C(=O)O[C@@H](C)[C@H](Cc2ccc(Cl)cc2)c2ccccc2)c1OC(=O)C(C)C [compound 202],80 to 100,80 to 100,0 to 80,0 to 80
COc1ccnc(C(=O)N[C@@H](C)C(=O)O[C@@H](C)[C@H](Cc2ccc(Cl)cc2)c2ccccc2)c1OCOC(C)=O [compound 203],80 to 100,80 to 100,80 to 100,0 to 80
COc1ccnc(C(=O)N[C@@H](C)C(=O)O[C@@H](C)[C@H](Cc2ccc(Cl)cc2)c2ccccc2)c1OCOC(=O)C(C)C [compound 204],80 to 100,80 to 100,0 to 80,0 to 80
COc1ccnc(C(=O)N[C@@H](C)C(=O)O[C@@H](C)[C@H](Cc2ccccc2)C(C)C)c1OC(C)=O [compound 205],80 to 100,80 to 100,80 to 100,80 to 100
COc1ccnc(C(=O)N[C@@H](C)C(=O)O[C@@H](C)[C@H](Cc2ccccc2)C(C)C)c1OCOC(C)=O [compound 206],80 to 100,80 to 100,80 to 100,80 to 100
CCCOC(C)(C)[C@@H](Cc1ccccc1)[C@H](C)OC(=O)[C@H](C)NC(=O)c1nccc(OC)c1OCOC(C)=O [compound 207],80 to 100,80 to 100,80 to 100,80 to 100
COc1ccnc(C(=O)N[C@@H](C)C(=O)O[C@@H](C)[C@@H](COc2ccccc2)Cc2ccccc2)c1OCOC(C)=O [compound 208],80 to 100,0 to 80,80 to 100,0 to 80
COc1ccnc(C(=O)N[C@@H](C)C(=O)O[C@@H](C)[C@@H](COc2ccc(Cl)cc2Cl)Cc2ccccc2)c1OCOC(C)=O [compound 209],0 to 80,0 to 80,0 to 80,–
COc1ccnc(C(=O)N[C@@H](C)C(=O)O[C@@H](C)[C@H](CCC(C)C)c2ccccc2)c1OC(C)=O [compound 210],80 to 100,80 to 100,80 to 100,0 to 80
COc1ccnc(C(=O)N[C@@H](C)C(=O)O[C@@H](C)[C@H](CCC(C)C)c2ccccc2)c1OC(=O)C(C)C [compound 211],80 to 100,80 to 100,0 to 80,–
COCCC(=O)Oc1c(OC)ccnc1C(=O)N[C@@H](C)C(=O)O[C@@H](C)[C@H](CCC(C)C)c1ccccc1 [compound 212],80 to 100,80 to 100,80 to 100,80 to 100
COc1ccnc(C(=O)N[C@@H](C)C(=O)O[C@@H](C)[C@H](CCC(C)C)c2ccccc2)c1OCOC(C)=O [compound 213],80 to 100,80 to 100,80 to 100,80 to 100
COc1ccnc(C(=O)N[C@@H](C)C(=O)O[C@@H](C)[C@H](CCC(C)C)c2ccccc2)c1OCOC(=O)C(C)C [compound 214],80 to 100,80 to 100,80 to 100,80 to 100
CCOCC(=O)OCOc1c(OC)ccnc1C(=O)N[C@@H](C)C(=O)O[C@@H](C)[C@H](CCC(C)C)c1ccccc1 [compound 215],80 to 100,80 to 100,80 to 100,80 to 100
COc1ccnc(C(=O)N[C@@H](C)C(=O)O[C@@H](C)[C@H](Cc2ccc(Cl)c(Cl)c2)c2ccccc2)c1OC(C)=O [compound 216],80 to 100,0 to 80,0 to 80,0 to 80
